From PubChem BioAssay (NCI)
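96-well plates; 48 h exposure; 5 concentrations. Endpoints by linear interpolation between flanking doses. Not reached: highest tested concentration assigned. GI50: concentration for 50% inhibition of growth. TGI is the concentration that stops growth completely.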

Tested on: SNB-78 CNS
Experiment: DTP human tumour cell line panel, 48 h

Structure (SMILES)	TGI	GI50
Nc1n[nH]c(=O)c2c1c(I)cn2C1OC(CO)C(O)C1O (centres undefined)	6.8 µM	–
O=C(Nc1ccc([N+](=O)[O-])cc1[N+](=O)[O-])C(=O)C(C(=O)c1ccc2ccccc2c1)C1OC(=O)c2ccccc21 (centres undefined)	82.5 µM	–
COc1cc(/C=C/C(=O)Oc2ccc(NC(C)=O)cc2)ccc1C(=O)O/C=C/c1ccccc1	> 100 µM	–
COc1ccc2c(c1)CCCN2CCCCCCCCCCN(CCC(C)C)CCC(C)C	38.1 µM	–
O=P1(c2ccccc2)Nc2ccccc2SSc2ccccc2N1	56.3 µM	–
N=C1C(=N)c2ccccc2-c2ccccc21.N=C1C(=N)c2ccccc2-c2ccccc21.N=C1C(=N)c2ccccc2-c2ccccc21.[Cl-].[Ru+2]	3.88 µM	1.65 µM
CCCOC(=O)CNC(=O)OC(C)(C)C	> 100 µM	–
CN(C)CCNC(=O)c1cccc2ccc(-c3ccc(F)cc3)nc12	31.4 µM	–

Tested on: K-562 leukemia
Experiment: DTP human tumour cell line panel, 48 h

Structure (SMILES)	TGI	GI50
Nc1n[nH]c(=O)c2c1c(I)cn2C1OC(CO)C(O)C1O (centres undefined)	> 100 µM	–
O=C(Nc1ccc([N+](=O)[O-])cc1[N+](=O)[O-])C(=O)C(C(=O)c1ccc2ccccc2c1)C1OC(=O)c2ccccc21 (centres undefined)	38.8 µM	–
COc1cc(/C=C/C(=O)Oc2ccc(NC(C)=O)cc2)ccc1C(=O)O/C=C/c1ccccc1	> 31.6 µM	–
COc1ccc2c(c1)CCCN2CCCCCCCCCCN(CCC(C)C)CCC(C)C	40 µM	–
O=P1(c2ccccc2)Nc2ccccc2SSc2ccccc2N1	51.4 µM	–
COc1ccc(-c2nc3ncccn3c2-c2ccc(SC)cc2)cc1	> 100 µM	–
C[C@H]1C(=O)O[C@@H]2CCN3CC=C(COC(=O)[C@](C)(O)[C@@]1(C)O)[C@H]23	> 100 µM	–
N=C1C(=N)c2ccccc2-c2ccccc21.N=C1C(=N)c2ccccc2-c2ccccc21.N=C1C(=N)c2ccccc2-c2ccccc21.[Cl-].[Ru+2]	4.68 µM	–
CCOC(=O)c1c2c(n(Cc3ccccc3)c1C)C(=O)C(=O)c1ccccc1-2	> 100 µM	–
CN(C)C(=O)/C=C/c1c[nH]c(=O)[nH]c1=O	> 500 µM	–
CN(C)CCCn1cnc2cc(Cl)c(Cl)cc21	> 100 µM	–
NCCCn1c2c(c3ccc([N+](=O)[O-])cc3c1=O)C(=O)c1ccccc1-2	–	0.0335 µM
O=C1NI(C#Cc2ccccc2)c2ccccc21	> 100 µM	–
CCc1nc(N)nc(N)c1-c1ccc([N+](C)(C)C)cc1	> 100 µM	–
Cc1cc2c(cc1C(=O)c1ccc(N)cc1)OCO2	> 100 µM	–
NCCc1cc(O)c(O)cc1O	> 80.5 µM	–
COc1ccc(C2=C3SC=c4ccccc4=C3ON=C2c2ccccc2)cc1	> 100 µM	–
CC(=O)NNc1nc(-c2ccc([N+](=O)[O-])cc2)c(C#N)c(=O)n1C	89.5 µM	–
COc1cc(C2CC(c3cccc(Nc4ccncc4)c3)=NN2c2ccc(Cl)cc2)cc(OC)c1OC (centres undefined)	4.71 µM	1.81 µM
CCCOC(=O)CNC(=O)OC(C)(C)C	> 100 µM	–
CN(C)CCNC(=O)c1cccc2ccc(-c3ccc(F)cc3)nc12	12 µM	–

Tested on: KM20L2 colon
Experiment: DTP human tumour cell line panel, 48 h

Structure (SMILES)	TGI	GI50
Nc1n[nH]c(=O)c2c1c(I)cn2C1OC(CO)C(O)C1O (centres undefined)	> 100 µM	–
O=C(Nc1ccc([N+](=O)[O-])cc1[N+](=O)[O-])C(=O)C(C(=O)c1ccc2ccccc2c1)C1OC(=O)c2ccccc21 (centres undefined)	61.9 µM	–
COc1cc(/C=C/C(=O)Oc2ccc(NC(C)=O)cc2)ccc1C(=O)O/C=C/c1ccccc1	> 100 µM	–
COc1ccc2c(c1)CCCN2CCCCCCCCCCN(CCC(C)C)CCC(C)C	23.1 µM	–
O=P1(c2ccccc2)Nc2ccccc2SSc2ccccc2N1	33.7 µM	–
N=C1C(=N)c2ccccc2-c2ccccc21.N=C1C(=N)c2ccccc2-c2ccccc21.N=C1C(=N)c2ccccc2-c2ccccc21.[Cl-].[Ru+2]	13.2 µM	5.37 µM
CN(C)C(=O)/C=C/c1c[nH]c(=O)[nH]c1=O	> 500 µM	–
CCCOC(=O)CNC(=O)OC(C)(C)C	> 100 µM	–
CN(C)CCNC(=O)c1cccc2ccc(-c3ccc(F)cc3)nc12	20.4 µM	–

Tested on: TK-10 renal
Experiment: DTP human tumour cell line panel, 48 h

Structure (SMILES)	TGI	GI50
Nc1n[nH]c(=O)c2c1c(I)cn2C1OC(CO)C(O)C1O (centres undefined)	> 100 µM	–
O=C(Nc1ccc([N+](=O)[O-])cc1[N+](=O)[O-])C(=O)C(C(=O)c1ccc2ccccc2c1)C1OC(=O)c2ccccc21 (centres undefined)	61.7 µM	–
COc1ccc2c(c1)CCCN2CCCCCCCCCCN(CCC(C)C)CCC(C)C	31.9 µM	–
C[C@H]1C(=O)O[C@@H]2CCN3CC=C(COC(=O)[C@](C)(O)[C@@]1(C)O)[C@H]23	> 100 µM	–
CCOC(=O)c1c2c(n(Cc3ccccc3)c1C)C(=O)C(=O)c1ccccc1-2	1.18 µM	–
CN(C)CCCn1cnc2cc(Cl)c(Cl)cc21	> 100 µM	–
NCCCn1c2c(c3ccc([N+](=O)[O-])cc3c1=O)C(=O)c1ccccc1-2	1.83 µM	0.212 µM
O=C1NI(C#Cc2ccccc2)c2ccccc21	> 100 µM	–
CCc1nc(N)nc(N)c1-c1ccc([N+](C)(C)C)cc1	> 100 µM	–
Cc1cc2c(cc1C(=O)c1ccc(N)cc1)OCO2	> 100 µM	–
NCCc1cc(O)c(O)cc1O	> 100 µM	–
COc1ccc(C2=C3SC=c4ccccc4=C3ON=C2c2ccccc2)cc1	> 100 µM	–
CC(=O)NNc1nc(-c2ccc([N+](=O)[O-])cc2)c(C#N)c(=O)n1C	72.8 µM	–
CCCOC(=O)CNC(=O)OC(C)(C)C	> 100 µM	–

Tested on: DLD-1 colon
Experiment: DTP human tumour cell line panel, 48 h

Structure (SMILES)	TGI
Nc1n[nH]c(=O)c2c1c(I)cn2C1OC(CO)C(O)C1O (centres undefined)	> 100 µM
O=C(Nc1ccc([N+](=O)[O-])cc1[N+](=O)[O-])C(=O)C(C(=O)c1ccc2ccccc2c1)C1OC(=O)c2ccccc21 (centres undefined)	81.4 µM
COc1cc(/C=C/C(=O)Oc2ccc(NC(C)=O)cc2)ccc1C(=O)O/C=C/c1ccccc1	> 100 µM
COc1ccc2c(c1)CCCN2CCCCCCCCCCN(CCC(C)C)CCC(C)C	22.6 µM
O=P1(c2ccccc2)Nc2ccccc2SSc2ccccc2N1	31.8 µM
CN(C)C(=O)/C=C/c1c[nH]c(=O)[nH]c1=O	> 500 µM
CCCOC(=O)CNC(=O)OC(C)(C)C	> 100 µM
CN(C)CCNC(=O)c1cccc2ccc(-c3ccc(F)cc3)nc12	17.9 µM
